# Assay results from patent publication US5498609A, “Benzoazepinyl compounds as oxytocin and vasopressin antagonists” (Otsuka Pharmaceutical Company, Limited, priority 1992, dated 1996).
# pIC50: −log10 of the molar value.
# Columns and labels:
# V1 receptor = V1 receptor (Rattus norvegicus, UniProt P30560); experiment: biochemical; settings: rat liver plasma membrane, [3H]-Arg-vasopressin, 37° C., 10 minutes, pH 8.0; read-out: IC50 in V1 receptor binding assay
# Experimental: Experiment 1: V1 receptor binding assay
# Using rat liver plasma membrane preparations prepared according to Ichihara's method [cf: Akira Ichihara, J. Bio. Chem., 258, 9283 (1983)], the plasma membrane (50000 dpm, 2×10^-10 M) of [^3 H]-Arg-vasopressin and a test compound (60 μg, 10^-8 to 10^-4 M) are incubated at 37° C. for 10 minutes in 100 mM Tris-HCl buffer (pH: 8.0) (250 μl) containing 5 mM MgCl2, 1 mM EDTA and 0.1% BSA. After incubation, the mixture is filtered three times using the glass filter (GF/F) so as to separate the membrane preparation binding with vasopressin and then washed with the buffer (5 ml). This glass filter is taken out and mixed with liquid scintillation cocktail. The amount of [^3 H]-vasopressin binding with the membrane is measured by liquid scintillation counter and the rate of the inhibitory effect of the test compound is estimated according to the following equation. [formula] C1 : The amount of [^3 H]-vasopressin binding with the membrane in the presence of the test compound (known amount)
# (§1) C0 : The amount of [^3 H]-vasopressin binding with the membrane in the absence of the test compound
# (§2) B1 : The amount of [^3 H]-vasopressin binding with the membrane in the presence of the excess amount of vasopressin (10^-6 M)
# (§3) The results are expressed as IC50 value, which is the concentration of the test compound required to achieve the inhibitory effect in the rate of 50%.
# V2 receptor = target: T1, V2 receptor (Rattus norvegicus, UniProt Q00788); experiment: biochemical; settings: rat kidney plasma membrane, [3H]-Arg-vasopressin, 4° C., pH 8.0, read-out: IC50 in V2 receptor binding assay
# T1 construct: Using rat kidney plasma membrane preparations; from tissue; host or cells: rat kidney plasma membrane
# Experimental: Experiment 2: V2 receptor binding assay
# Using rat kidney plasma membrane preparations prepared according to O. Hechter's method [cf: J. Bio. Chem., 253, 3211 (1978)], the plasma membrane (100000 dpm, 4×10^-10 M) of [^3 H]-Arg-vasopressin and a test compound (0.6 mg, 10^-10 to 10^-5 M) are incubated at 4° C. for 3 hours in 100 mM Tris-HCl buffer (pH: 8.0) (250 μl) containing 5 mM MgCl2, 1 mM EDTA and 0.1% BSA. After incubation, the mixture is filtered using the glass filter (GF/F) so as to separate the membrane preparation binding with vasopressin and then washed twice with the buffer (each 5 ml). This glass filter is taken out and mixed with liquid scintillation cocktail. The amount of [^3 H]-vasopressin binding with the membrane is measured by liquid scintillation counter and the rate of the inhibitory effect of the test compound is estimated according to the following equation. [formula] C1 : The amount of [^3 H]-vasopressin binding with the membrane in the presence of the test compound (known amount)
# as §1, §2, §3
# Oxytocin receptor = target: T2, Oxytocin receptor (Rattus norvegicus, UniProt P70536); experiment: Oxytocin receptor binding assay ([3H]-oxytocin, rat uterine muscle membrane); settings: for pIC50: 25° C., one hour, pH 8.0; for inhibition at 10 µM: 10^-5 M test compound, read-out: Inhibitory Rate (%) at 10^-5 M (oxytocin receptor binding assay)
# T2 construct: from tissue; host or cells: rat uterine muscle membrane (diethylstilbestrol-treated)
# T2 sequence (P70536 1-388): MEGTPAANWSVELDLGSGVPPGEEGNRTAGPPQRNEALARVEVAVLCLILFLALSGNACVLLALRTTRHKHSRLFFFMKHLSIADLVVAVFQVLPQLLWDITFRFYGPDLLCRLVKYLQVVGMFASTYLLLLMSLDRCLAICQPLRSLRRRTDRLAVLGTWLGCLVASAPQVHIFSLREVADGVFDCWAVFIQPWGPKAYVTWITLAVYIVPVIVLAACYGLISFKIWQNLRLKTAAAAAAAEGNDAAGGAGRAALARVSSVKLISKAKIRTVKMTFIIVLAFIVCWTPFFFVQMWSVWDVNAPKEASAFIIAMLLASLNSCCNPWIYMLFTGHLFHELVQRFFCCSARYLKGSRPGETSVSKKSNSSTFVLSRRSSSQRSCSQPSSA
# Experimental: Experiment 3: Oxytocin receptor binding assay
# According to the method of W. Y. Chan et al. [Endocrinology, 126, 2095-2101 (1990)], uterine muscle is taken out from a rat which has previously been injected subcutaneously with diethylstilbestrol the day before, and homogenized, which is used as a membrane preparation. The membrane preparation (0.2 mg), [^3 H]-oxytocin (100000 dpm, 10^-9 M), a test compound (10^-9 -10^-5 M) are incubated at 25° C. for one hour in 100 mM Tris-HCl buffer (pH 8.0, 250 μl) containing a 5 mM MgCl2, 1 mM MEDTA and 0.1% BSA. The mixture is filtered through the glass filter (GF/B) so as to separate the membrane preparation binding with [^3 H]-oxytocin, and then, washed twice with the buffer (5 ml). This glass filter is put into a vial and mixed with Aquasole (liquid scintillation cocktail). The amount of [^3 H]-oxytocin binding with the membrane is measured by liquid scintillation counter. The rate of the inhibitory effect of the test compound is estimated according to the following equation.
# Inhibitory Rate (%)=100-[(C1 -B)/(C0 -B)]×100
# C1 : The amount of [^3 H]-oxytocin binding with the membrane in the presence of a test compound (known amount)
# C0 : The amount of [^3 H]-oxytocin binding with the membrane in the absence of a test compound
# B: The amount of [^3 H]-oxytocin binding with the membrane in the presence of the excess amount of oxytocin (5×10^-6 M).
# The results are expressed as IC50 value, which is the concentration of the test compound required to achieve the inhibitory rate in the rate of 50%.
# T1 sequence (Q00788 whole entry): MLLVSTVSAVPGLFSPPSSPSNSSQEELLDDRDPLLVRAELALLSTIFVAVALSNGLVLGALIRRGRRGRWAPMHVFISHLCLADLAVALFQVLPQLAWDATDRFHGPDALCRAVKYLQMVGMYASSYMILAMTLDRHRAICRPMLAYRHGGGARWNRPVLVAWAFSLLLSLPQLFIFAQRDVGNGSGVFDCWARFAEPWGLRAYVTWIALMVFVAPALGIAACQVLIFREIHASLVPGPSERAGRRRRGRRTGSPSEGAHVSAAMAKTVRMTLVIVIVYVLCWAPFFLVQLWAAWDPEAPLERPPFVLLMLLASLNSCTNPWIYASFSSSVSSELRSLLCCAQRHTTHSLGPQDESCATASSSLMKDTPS
# V1 receptor, sequence (P30560 whole entry): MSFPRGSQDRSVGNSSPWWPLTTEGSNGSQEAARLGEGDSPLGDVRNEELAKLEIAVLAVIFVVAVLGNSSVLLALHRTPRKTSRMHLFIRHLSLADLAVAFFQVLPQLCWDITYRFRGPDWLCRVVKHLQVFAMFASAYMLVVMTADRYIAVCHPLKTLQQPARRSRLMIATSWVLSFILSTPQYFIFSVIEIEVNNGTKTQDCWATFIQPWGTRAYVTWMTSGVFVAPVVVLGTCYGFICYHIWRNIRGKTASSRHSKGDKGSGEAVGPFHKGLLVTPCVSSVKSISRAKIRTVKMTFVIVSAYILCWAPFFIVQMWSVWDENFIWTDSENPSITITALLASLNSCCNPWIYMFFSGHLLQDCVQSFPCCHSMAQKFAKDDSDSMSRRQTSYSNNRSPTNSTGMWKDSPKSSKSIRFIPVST
pIC50 (V1 receptor),pIC50 (V2 receptor),pIC50 (Oxytocin receptor),inhibition at 10 µM (Oxytocin receptor),Structure (SMILES)
7.96,8.30,5.94,,"Cc1ccccc1C(=O)Nc1ccc(C(=O)N2CCCC(OCCN(C)C)c3cc(Cl)ccc32)cn1 (centres unmarked) [Compound of Ex. 37, 7-chloro-5-(2-dimethylaminoethoxy)-1-[6-(2-methylbenzoylamino)nicotinoyl]-2,3,4,5-tetrahydro-1H-benzazepine]"
7.36,8.05,6.13,,Cc1ccccc1C(=O)Nc1ccc(C(=O)N2CCCC(CC(N)=O)c3cc(Cl)ccc32)cn1 (centres unmarked) [Compound of Ex. 40]
7.89,8.00,6.54,,Cc1ccccc1C(=O)Nc1ccc(C(=O)N2CCCCc3cc(Cl)ccc32)cn1 [Compound of Ex. 43]
8.10,7.96,6.51,,O=C(Nc1ccc(C(=O)N2CCCCc3cc(Cl)ccc32)cn1)c1ccccc1Cl [Compound of Ex. 44]
8.30,8.15,6.59,,O=C(Nc1ccc(C(=O)N2CCCCc3cc(Cl)ccc32)cn1)c1ccccc1Br [Compound of Ex. 45]
,,6.44,,O=C(Nc1ccc(C(=O)N2CCCCc3cc(Cl)ccc32)cn1)C1CCCCC1 [Compound of Ex. 46]
7.29,7.66,5.80,,Cc1ccccc1C(=O)Nc1ccc(C(=O)N2CCCN(C)c3cc(Cl)ccc32)cn1 [Compound of Ex. 52]
,,6.36,,COC1CCCN(C(=O)c2ccc(NC(=O)c3ccccc3Cl)nc2)c2ccc(Cl)cc21 (centres unmarked) [Compound of Ex. 72]
7.57,8.10,5.82,,C=CCOC1CCCN(C(=O)c2ccc(NC(=O)c3ccccc3Br)nc2)c2ccc(Cl)cc21 (centres unmarked) [Compound of Ex. 76]
,,5.74,,Cc1ccccc1C(=O)Nc1ccc(C(=O)N2CCCC(NC3CC3)c3cc(Cl)ccc32)cn1 (centres unmarked) [Compound of Ex. 77]
,,6.00,,CNC1CCCN(C(=O)c2ccc(NC(=O)c3ccccc3Cl)nc2)c2ccc(Cl)cc21 (centres unmarked) [Compound of Ex. 80]
,,5.01,,CCOC(=O)COc1ccccc1C(=O)Nc1ccc(C(=O)N2CCCCc3cc(Cl)ccc32)cn1 [Compound of Ex. 82]
7.15,6.37,5.18,,O=C(Nc1ccc(C(=O)N2CCCCc3cc(Cl)ccc32)cn1)c1ccccc1OCCO [Compound of Ex. 83]
,,,17%,O=C(O)CCCOc1ccccc1C(=O)Nc1ccc(C(=O)N2CCCCc3cc(Cl)ccc32)cn1 [Compound of Ex. 86]
,,5.14,,CN1CCN(C(=O)CCCOc2ccccc2C(=O)Nc2ccc(C(=O)N3CCCCc4cc(Cl)ccc43)cn2)CC1 [Compound of Ex. 89]
,,,38%,CC(C)NCCOc1ccccc1C(=O)Nc1ccc(C(=O)N2CCCCc3cc(Cl)ccc32)cn1 [Compound of Ex. 91]
7.22,6.42,,38%,CC(=O)NC1CCN(CCOc2ccccc2C(=O)Nc2ccc(C(=O)N3CCCCc4cc(Cl)ccc43)cn2)CC1 [Compound of Ex. 92]
7.38,7.44,6.08,,"O=C1c2ccccc2OCCN1c1ccc(C(=O)N2CCCCc3cc(Cl)ccc32)cn1 [Compound of Ex. 94, 7-chloro-1-[6-(6,7-benzo-1-oxo-4-azepin-5-on-4-yl)nicotinoyl]-2,3,4,5-tetrahydro-1H-benzazepine]"
8.30,6.80,5.74,,NC(=O)COc1ccccc1C(=O)Nc1ccc(C(=O)N2CCCCc3cc(Cl)ccc32)cn1 [Compound of Ex. 97]
6.31,7.48,5.46,,O=C(O)CC1CCCN(C(=O)c2ccc(NC(=O)c3ccccc3Br)nc2)c2ccc(Cl)cc21 (centres unmarked) [Compound of Ex. 101]
7.42,7.62,6.29,,Cc1ccccc1C(=O)Nc1ccc(C(=O)N2CCCC(CC(=O)N3CCCCC3)c3cc(Cl)ccc32)cn1 (centres unmarked) [Compound of Ex. 104]
,,6.39,,CN1CCN(C(=O)CC2CCCN(C(=O)c3ccc(NC(=O)c4ccccc4Cl)nc3)c3ccc(Cl)cc32)CC1 (centres unmarked) [Compound of Ex. 107]
8.05,8.52,6.55,,CCNC(=O)CC1CCCN(C(=O)c2ccc(NC(=O)c3ccccc3Cl)nc2)c2ccc(Cl)cc21 (centres unmarked) [Compound of Ex. 112]
7.96,8.52,6.49,,O=C(Nc1ccc(C(=O)N2CCCC(CC(=O)N3CCCC3)c3cc(Cl)ccc32)cn1)c1ccccc1Cl (centres unmarked) [Compound of Ex. 114]
,,6.46,,CCN(CC)CCN(C)C(=O)CC1CCCN(C(=O)c2ccc(NC(=O)c3ccccc3Br)nc2)c2ccc(Cl)cc21 (centres unmarked) [Compound of Ex. 120]
7.82,8.52,6.19,,"CC(=O)OCCC1CCCN(C(=O)c2ccc(NC(=O)c3ccccc3Cl)nc2)c2ccc(Cl)cc21 (centres unmarked) [Compound of Ex. 122, 7-chloro-5-(2-acetyloxyethyl)-1-[6-(2-chlorobenzoylamino)nicotinoyl]-2,3,4,5-tetrahydro-1H-benzazepine]"
7.70,8.49,6.49,,Cc1ccccc1C(=O)Nc1ccc(C(=O)N2CCCC(CCO)c3cc(Cl)ccc32)cn1 (centres unmarked) [Compound of Ex. 123]
7.72,8.28,5.88,,"O=C(Nc1ccc(C(=O)N2CCCC(CCN3CCCC3)c3cc(Cl)ccc32)cn1)c1ccccc1Cl (centres unmarked) [Compound of Ex. 126, 7-chloro-5-[2-(1-pyrrolidinyl)ethyl]-1-[6-(2-chlorobenzoylamino)nicotinoyl]-2,3,4,5-tetrahydro-1H-benzazepine]"
7.54,8.23,6.17,,O=C(Nc1ccc(C(=O)N2CCCC(CCN3CCOCC3)c3cc(Cl)ccc32)cn1)c1ccccc1Cl (centres unmarked) [Compound of Ex. 127]
,,5.92,,O=C(Nc1ccc(C(=O)N2CCCC(O)(CO)c3cc(Cl)ccc32)cn1)c1ccccc1Cl (centres unmarked) [Compound of Ex. 145]

Structure (SMILES),pIC50 (V1 receptor),pIC50 (V2 receptor),pIC50 (Oxytocin receptor),inhibition at 10 µM (Oxytocin receptor)
"CN1CCN(C(=O)COc2ccccc2C(=O)Nc2ccc(C(=O)N3CCCCc4cc(Cl)ccc43)cn2)CC1 [Compound of Ex. 88, 7-chloro-1-{6-[2-(4-methyl-1-piperazinyl)-carbonylmethoxybenzoylamino]nicotinoyl}-2,3,4,5-tetrahydro-1H-benzazepine]",7.59,6.70,5.35,
